Values of other authors as cited in patent publication US8653026B2, “Treatment of type 2 diabetes with FTY720” (Diapin Therapeutics LLC, priority 2011, dated 2014).

How the values were obtained:
Conditions in all cases: literature reference (25); cited from earlier work
S1P2 = S1P2 (Homo sapiens, UniProt O95136)
S1P5 = S1P5 (Homo sapiens, UniProt Q9H228)
S1P3 = S1P3 (Homo sapiens, UniProt Q99500)
S1P1 = S1P1 (Homo sapiens, UniProt P21453)
S1P4 = target: T1, S1P4 (Homo sapiens, UniProt O95977)
T1 sequence (O95977 1-384): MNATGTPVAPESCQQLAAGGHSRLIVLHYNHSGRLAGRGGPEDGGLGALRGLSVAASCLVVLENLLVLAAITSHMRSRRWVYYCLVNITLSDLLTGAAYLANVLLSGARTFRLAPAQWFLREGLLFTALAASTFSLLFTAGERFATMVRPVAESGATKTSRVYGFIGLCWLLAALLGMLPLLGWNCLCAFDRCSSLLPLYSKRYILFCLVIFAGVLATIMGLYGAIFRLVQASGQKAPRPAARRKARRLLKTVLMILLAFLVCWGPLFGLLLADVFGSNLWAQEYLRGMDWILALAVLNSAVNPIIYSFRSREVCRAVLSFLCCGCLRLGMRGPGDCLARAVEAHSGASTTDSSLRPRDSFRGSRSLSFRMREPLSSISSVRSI

Chain of S1P2 (O95136 whole entry, species assumed): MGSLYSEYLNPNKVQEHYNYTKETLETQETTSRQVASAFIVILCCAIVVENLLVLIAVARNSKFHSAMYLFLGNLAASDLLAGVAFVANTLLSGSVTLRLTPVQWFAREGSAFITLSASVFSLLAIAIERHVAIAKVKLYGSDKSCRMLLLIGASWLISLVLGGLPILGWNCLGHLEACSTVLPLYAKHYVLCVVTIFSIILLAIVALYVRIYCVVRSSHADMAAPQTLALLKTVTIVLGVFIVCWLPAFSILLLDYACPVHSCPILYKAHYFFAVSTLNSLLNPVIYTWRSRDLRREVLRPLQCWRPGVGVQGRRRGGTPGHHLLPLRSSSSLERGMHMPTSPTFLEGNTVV
Chain of S1P1 (P21453 whole entry, species assumed): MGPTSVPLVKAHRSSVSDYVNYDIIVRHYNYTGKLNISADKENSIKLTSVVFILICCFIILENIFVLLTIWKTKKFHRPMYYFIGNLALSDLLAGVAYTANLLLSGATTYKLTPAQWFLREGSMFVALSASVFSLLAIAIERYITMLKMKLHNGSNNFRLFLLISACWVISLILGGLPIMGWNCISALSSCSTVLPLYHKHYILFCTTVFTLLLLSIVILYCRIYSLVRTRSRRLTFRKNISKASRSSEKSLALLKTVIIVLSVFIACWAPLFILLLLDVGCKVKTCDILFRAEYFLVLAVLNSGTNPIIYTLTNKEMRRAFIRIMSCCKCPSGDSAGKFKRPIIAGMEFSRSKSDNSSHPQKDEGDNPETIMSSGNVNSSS
Chain of S1P5 (Q9H228 whole entry, species assumed): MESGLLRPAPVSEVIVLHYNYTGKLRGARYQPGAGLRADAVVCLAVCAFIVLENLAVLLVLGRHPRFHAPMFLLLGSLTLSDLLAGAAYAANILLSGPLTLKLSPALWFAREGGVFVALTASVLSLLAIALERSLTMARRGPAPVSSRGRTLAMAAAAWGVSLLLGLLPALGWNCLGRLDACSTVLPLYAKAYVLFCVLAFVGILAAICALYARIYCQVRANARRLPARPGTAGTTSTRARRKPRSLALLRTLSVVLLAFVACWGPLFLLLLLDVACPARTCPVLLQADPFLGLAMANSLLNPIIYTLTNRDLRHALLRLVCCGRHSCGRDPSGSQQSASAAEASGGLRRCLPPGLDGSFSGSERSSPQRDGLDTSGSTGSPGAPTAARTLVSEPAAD
Chain of S1P3 (Q99500 whole entry, species assumed): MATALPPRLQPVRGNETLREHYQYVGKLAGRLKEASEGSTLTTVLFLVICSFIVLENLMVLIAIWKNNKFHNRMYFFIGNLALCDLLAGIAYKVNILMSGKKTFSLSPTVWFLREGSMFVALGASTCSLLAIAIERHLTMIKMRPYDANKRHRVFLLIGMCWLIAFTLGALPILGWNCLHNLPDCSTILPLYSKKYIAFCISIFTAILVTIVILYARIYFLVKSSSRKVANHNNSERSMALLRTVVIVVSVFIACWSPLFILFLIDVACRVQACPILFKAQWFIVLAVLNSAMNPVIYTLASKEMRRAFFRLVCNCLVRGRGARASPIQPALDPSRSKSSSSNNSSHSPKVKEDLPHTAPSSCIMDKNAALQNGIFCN

SMILES: CCCCCCCCc1ccc(CCC(N)(CO)COP(=O)(O)O)cc1 (centres unmarked) [FTY720-P, 2-amino-2-(hydroxymethyl)-4-(4-octylphenyl)butyl dihydrogen phosphate]
- binding to S1P2 (S1P2): but not S1P2
- binding to S1P5 (S1P5): binds
- binding to S1P3 (S1P3): binds
- binding to S1P1 (S1P1): binds
- binding to S1P4 (S1P4): binds
